Test results reported in ChEMBL document CHEMBL1201862, “PubChem BioAssay data set” (2004).
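How tested: cells in 96-well plates exposed to compound for 48 hours at five concentrations. GI50 = concentration required for 50% inhibition of growth.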 Calls of active or inactive are those of the source. Cut-off read from the data, not from the text of the source: active = GI50 up to about 1.1 µM and inactive = higher. Where a SMILES comes first, the peptide text is derived from it. Bridges are numbered along the chain shown (N, C = ends). [ ]: non-standard residue; d: D form. The star is where a group is joined. ξ: configuration not given here. X28 = O=C(/C=C/C=C/C=C/C=C/C=C/C(=O)*)NC1=C(O)CCC1=O; NMeA = CN[C@@H](C)C(=O)O; ξF = NC(Cc1ccccc1)C(=O)O; ξA = CC(N)C(=O)O

Legend:
Assay in all cases: DTP human tumour cell line panel, 48 h
SW-620 = tested on: SW-620
UO-31 = tested on: UO-31
HCT-116 = tested on: HCT-116
SK-MEL-5 = tested on: SK-MEL-5
NCI-H23 = tested on: NCI-H23
SF-295 = tested on: SF-295
SF-268 = tested on: SF-268
Malme-3M = tested on: Malme-3M
Hs-578T = tested on: Hs-578T
MDA-MB-435 = tested on: MDA-MB-435
OVCAR-8 = tested on: OVCAR-8
MCF7 = tested on: MCF7
SK-OV-3 = tested on: SK-OV-3
SK-MEL-2 = tested on: SK-MEL-2
SK-MEL-28 = tested on: SK-MEL-28
NCI-H522 = tested on: NCI-H522
SR = tested on: SR
OVCAR-5 = tested on: OVCAR-5
OVCAR-3 = tested on: OVCAR-3
TK-10 = tested on: TK-10

Measured: GI50

CC(=O)OCC1OC(n2c(-c3ccc(C)cc3)cc(-c3ccco3)c(C#N)c2=S)C(OC(C)=O)C(OC(C)=O)C1OC(C)=O (stereo not drawn)
inactive: SW-620 > 100 µM | UO-31 28.9 µM | HCT-116 29 µM | SK-MEL-5 65.2 µM | NCI-H23 48 µM | SF-295 > 100 µM | SF-268 56.8 µM | Malme-3M > 100 µM | Hs-578T 27.9 µM | MDA-MB-435 > 100 µM | OVCAR-8 25.8 µM | MCF7 40.6 µM | SK-OV-3 29.9 µM | SK-MEL-2 41.7 µM | SK-MEL-28 > 100 µM | NCI-H522 50.4 µM | SR > 100 µM | OVCAR-5 > 100 µM | OVCAR-3 > 100 µM | TK-10 52.1 µM

C=C(C)[C@@H]1CCC2=C[C@H](C/C(C)=C\C3=CC(C)=C(O3)[C@H]1O)OC2=O
inactive: SW-620 > 100 µM | UO-31 > 100 µM | SK-MEL-5 > 100 µM | SF-295 80.9 µM | SF-268 > 100 µM | Malme-3M > 100 µM | Hs-578T 65.5 µM | MDA-MB-435 > 100 µM | OVCAR-8 73.8 µM | MCF7 71.1 µM | SK-MEL-2 > 100 µM | SK-MEL-28 > 100 µM | NCI-H522 68.5 µM | SR > 100 µM | OVCAR-5 > 100 µM | OVCAR-3 > 100 µM | TK-10 71 µM

CCCNc1[nH]c(C(=O)c2ccccc2)c(N)c1C(=S)Nc1ccccc1
inactive: SW-620 > 100 µM | UO-31 > 100 µM | HCT-116 > 100 µM | SK-MEL-5 > 100 µM | NCI-H23 > 100 µM | SF-295 > 100 µM | SF-268 > 100 µM | Malme-3M > 100 µM | Hs-578T > 100 µM | MDA-MB-435 > 100 µM | OVCAR-8 > 100 µM | MCF7 > 100 µM | SK-OV-3 > 100 µM | SK-MEL-2 > 100 µM | SK-MEL-28 > 100 µM | NCI-H522 > 100 µM | SR > 100 µM | OVCAR-5 > 100 µM | OVCAR-3 > 100 µM | TK-10 > 100 µM

NP(=O)(Oc1c2occc2cc2ccc(=O)oc12)N(CCCl)CCCl (stereo not drawn)
inactive: SW-620 > 100 µM | UO-31 > 100 µM | HCT-116 > 100 µM | SK-MEL-5 27.9 µM | NCI-H23 > 100 µM | SF-295 > 100 µM | SF-268 58.2 µM | Malme-3M > 100 µM | Hs-578T > 100 µM | MDA-MB-435 > 100 µM | OVCAR-8 73.6 µM | MCF7 51.1 µM | SK-MEL-2 > 100 µM | SK-MEL-28 > 100 µM | NCI-H522 > 100 µM | SR 38.5 µM | OVCAR-5 > 100 µM | OVCAR-3 > 100 µM | TK-10 > 100 µM

CCOC(=O)CNC(=O)C(CSC(=O)N(O)c1ccc(Br)cc1)NC(=O)CCC(N)C(=O)OCC (stereo not drawn)
inactive: SW-620 45.1 µM | UO-31 > 50 µM | HCT-116 > 50 µM | SK-MEL-5 > 50 µM | NCI-H23 > 50 µM | SF-295 > 50 µM | SF-268 > 50 µM | Malme-3M > 50 µM | Hs-578T > 50 µM | MDA-MB-435 24.4 µM | OVCAR-8 > 50 µM | MCF7 > 50 µM | SK-OV-3 > 50 µM | SK-MEL-2 > 50 µM | SK-MEL-28 > 50 µM | NCI-H522 > 50 µM | SR > 50 µM | OVCAR-5 > 50 µM | OVCAR-3 > 50 µM

CC1NC(=O)[C@H](C)N(C)C(=O)[C@@H]2CCCN2C(=O)[C@@H](NC(=O)C(Cc2ccccc2)NC(=O)/C=C/C=C/C=C/C=C/C=C/C(=O)NC2=C(O)CCC2=O)COC(=O)[C@@H]2CCCN2C1=O (stereo partly drawn) (X28-[ξF]SP[NMeA][ξA]P; ester 2-C)
inactive: SW-620 > 100 µM | UO-31 29.2 µM | HCT-116 > 100 µM | SK-MEL-5 > 100 µM | NCI-H23 > 100 µM | SF-295 > 100 µM | SF-268 > 100 µM | Malme-3M > 100 µM | Hs-578T 59.2 µM | MDA-MB-435 > 100 µM | MCF7 > 100 µM | SK-OV-3 > 100 µM | SK-MEL-2 > 100 µM | SK-MEL-28 > 100 µM | NCI-H522 > 100 µM | SR 79.3 µM | OVCAR-5 > 100 µM | OVCAR-3 > 100 µM | TK-10 30.3 µM

Clc1ccc(-c2c3nc(c(-c4ccc(Cl)cc4)c4ccc([nH]4)c(-c4ccc(Cl)cc4)c4nc(c(-c5ccc(Cl)cc5)c5ccc2[nH]5)C=C4)C=C3)cc1
inactive: SW-620 > 100 µM | UO-31 > 100 µM | SK-MEL-5 > 100 µM | NCI-H23 > 100 µM | SF-295 > 100 µM | SF-268 > 100 µM | Malme-3M 70.8 µM | Hs-578T 40.1 µM | MDA-MB-435 > 100 µM | OVCAR-8 > 100 µM | MCF7 > 100 µM | SK-OV-3 > 100 µM | SK-MEL-2 > 100 µM | SK-MEL-28 > 100 µM | NCI-H522 > 100 µM | SR > 100 µM | OVCAR-5 > 100 µM | OVCAR-3 > 100 µM | TK-10 > 100 µM

CC(NC(=O)C(Cc1ccc(OC(=O)c2ccccc2)cc1)NC(=O)OC(C)(C)C)C(=O)NCC(=O)NC(Cc1ccccc1)NC(=O)OCc1ccccc1 (stereo not drawn)
inactive: SW-620 > 100 µM | UO-31 > 100 µM | HCT-116 > 100 µM | SK-MEL-5 71.6 µM | NCI-H23 > 100 µM | SF-295 > 100 µM | SF-268 > 100 µM | Malme-3M > 100 µM | Hs-578T 59.8 µM | MDA-MB-435 > 100 µM | OVCAR-8 > 100 µM | MCF7 > 100 µM | SK-OV-3 > 100 µM | SK-MEL-28 > 100 µM | NCI-H522 > 100 µM | SR 87.5 µM | OVCAR-5 > 100 µM | OVCAR-3 > 100 µM | TK-10 > 100 µM

O=C1/C(=C/c2cccc(Br)c2)CCc2ccccc21
inactive: SW-620 5.51 µM | UO-31 13.8 µM | HCT-116 7.69 µM | NCI-H23 15.8 µM | SF-295 15.2 µM | SF-268 6.76 µM | Malme-3M 12.4 µM | Hs-578T 6.05 µM | MDA-MB-435 12.4 µM | OVCAR-8 16.1 µM | MCF7 3.75 µM | SK-OV-3 22.8 µM | SK-MEL-2 12.9 µM | SK-MEL-28 18.4 µM | NCI-H522 10.6 µM | SR 4.1 µM | OVCAR-5 14.9 µM | OVCAR-3 15.2 µM | TK-10 16.5 µM

CC1=NN=C(N)N/C1=C\C(Sc1ccc(Cl)cc1)c1ccc([N+](=O)[O-])cc1 (stereo not drawn)
inactive: SW-620 85.3 µM | UO-31 28.3 µM | HCT-116 39.8 µM | SK-MEL-5 74.5 µM | NCI-H23 80.9 µM | SF-295 > 100 µM | SF-268 47.4 µM | Malme-3M > 100 µM | Hs-578T > 100 µM | MDA-MB-435 83.9 µM | OVCAR-8 > 100 µM | MCF7 57.9 µM | SK-OV-3 > 100 µM | SK-MEL-2 > 100 µM | SK-MEL-28 > 100 µM | NCI-H522 26.9 µM | SR > 100 µM | OVCAR-5 > 100 µM | TK-10 > 100 µM

Cc1c(-c2ccccc2)cc(O)c2nc3ccccc3n12
inactive: SW-620 20.7 µM | UO-31 9.25 µM | SK-MEL-5 44 µM | NCI-H23 > 100 µM | SF-295 49.8 µM | SF-268 > 10 µM | Malme-3M > 100 µM | Hs-578T 55.1 µM | MDA-MB-435 13.7 µM | OVCAR-8 > 100 µM | MCF7 57.9 µM | SK-MEL-28 > 100 µM | NCI-H522 20.4 µM | SR 7.06 µM | OVCAR-5 > 100 µM | OVCAR-3 > 100 µM | TK-10 > 100 µM

Cc1nc2ccccc2[nH]/c1=N/Nc1ccccc1
inactive: SW-620 40.6 µM | UO-31 18.8 µM | HCT-116 25.8 µM | SK-MEL-5 14 µM | NCI-H23 18.1 µM | SF-295 18.6 µM | SF-268 27.6 µM | Malme-3M 20.3 µM | Hs-578T 31.1 µM | MDA-MB-435 14.8 µM | OVCAR-8 20.3 µM | MCF7 12.3 µM | SK-MEL-2 30.4 µM | SK-MEL-28 26.5 µM | NCI-H522 26.1 µM | SR 19.3 µM | OVCAR-5 26.7 µM | OVCAR-3 14 µM | TK-10 > 100 µM

COc1ccc(Nc2nc3cc(C(F)(F)F)ccc3nc2C(=O)O)cc1OC
inactive: SW-620 47.2 µM | UO-31 28.2 µM | HCT-116 27.4 µM | SK-MEL-5 22.4 µM | NCI-H23 26.4 µM | SF-295 10.5 µM | SF-268 42.8 µM | Malme-3M 42.9 µM | Hs-578T 52.2 µM | MDA-MB-435 33.8 µM | OVCAR-8 39.5 µM | MCF7 45.2 µM | SK-MEL-2 11.1 µM | SK-MEL-28 47.5 µM | NCI-H522 30.4 µM | SR 25.1 µM | OVCAR-5 58.9 µM | OVCAR-3 17.5 µM | TK-10 34.4 µM

O=c1[nH]nc(-c2ccccc2)n1-c1ccncc1
inactive: SW-620 > 100 µM | UO-31 > 100 µM | HCT-116 > 100 µM | SK-MEL-5 > 100 µM | NCI-H23 > 100 µM | SF-295 > 100 µM | SF-268 > 100 µM | Malme-3M > 100 µM | Hs-578T > 100 µM | MDA-MB-435 > 100 µM | OVCAR-8 > 100 µM | MCF7 > 100 µM | SK-MEL-28 > 100 µM | NCI-H522 > 100 µM | SR > 100 µM | OVCAR-5 > 100 µM | OVCAR-3 > 100 µM | TK-10 > 100 µM
